Measurements reported in patent US20230236206A1, “PREDICTING A SEPSIS CONDITION” (PHARM-ANALYT LABOR GMBH, priority 2020, published 2023).

Test: Hydrophilicity of BM1
Format: physicochemical

## C[C@@H](O)[C@H](NC(=O)Nc1ncnc2c1ncn2[C@@H]1O[C@H](CO)C(O)C1O)C(=O)O (stereo partly drawn) [BM1, N6-Carbamoylthreonyl-D-adenosine]
  Hydrophilicity: very hydrophilic
